# Test results reported in publication PMC7722354, “7-Substituted 2-Nitro-5,6-dihydroimidazo[2,1-b][1,3]oxazines: Novel Antitubercular Agents Lead to a New Preclinical Candidate for Visceral Leishmaniasis” (Journal of Medicinal Chemistry, 2017).
# Assays:
# [1] = tested on: M. tb, strain H37Rv; experiment: LORA minimum inhibitory concentration assay (hypoxic); format: cell-based; conditions: Mycobacterium tuberculosis
# [2] = tested on: human lung fibroblasts (MRC-5 cells); experiment: cytotoxicity toward MRC-5 cells (LMPH); format: cell-based; conditions: MRC5
# [3] = tested on: Leishmania infantum; experiment: L. inf growth inhibition in mouse macrophages (LMPH); format: cell-based; conditions: Macrophage, mean of at least two determinations
# [4] = tested on: Trypanosoma cruzi; experiment: T. cruzi growth inhibition on MRC-5 cells (LMPH); format: cell-based; conditions: MRC5
# [5] = tested on: M. tb, strain H37Rv; experiment: MABA minimum inhibitory concentration assay (aerobic); format: cell-based, Mycobacterium tuberculosis
# [6] = tested on: Leishmania donovani; experiment: L. don amastigote mouse macrophage-based luciferase assay (CDRI); format: cell-based; conditions: in mouse macrophages, single test (CDRI)
# [7] = Mycobacterium tuberculosis, H37RV, aerobic, read-out: MIC MABA
# [8] = Mycobacterium tuberculosis, H37RV, read-out: MIC MABA, aerobic
SMILES,MIC [1],IC50 [2],IC50 [3],IC50 [4],"MIC [5, 7]","MIC ([5]; aerobic, read-out: MIC MABA)",IC50 [6],"MIC [5, 8]"
O=[N+]([O-])c1cn2c(n1)OC(COc1ccc(-c3ccc(OC(F)(F)F)cc3)cn1)CC2 (stereo not shown) [compound 64],0.47 µM,> 64000 nM,350 nM,120 nM,0.02 to 0.04 µM,0.027 µM,50 nM,–
CC1(COc2cccc(-c3ccc(F)nc3)n2)CCn2cc([N+](=O)[O-])nc2O1 (stereo not shown) [compound 118],7.8 µM,> 64000 nM,1100 nM,520 nM,11 µM,–,–,–
CC1(COc2ccc(-c3ccc(F)nc3)cc2)CCn2cc([N+](=O)[O-])nc2O1 (stereo not shown) [compound 56],2.7 µM,> 64000 nM,160 nM,300 nM,0.29 µM,–,120 nM,–
O=[N+]([O-])c1cn2c(n1)OC(COCc1ccc(OCc3ccccc3)cc1)CC2 (stereo not shown) [compound 22],3 µM,–,–,–,–,–,50 nM,–
O=[N+]([O-])c1cn2c(n1)OC(COc1cccc(-c3ccc(F)nc3F)n1)CC2 (stereo not shown) [compound 119],10 µM,> 64000 nM,6700 nM,130 nM,4.3 µM,–,250 nM,–
CC1(COc2ccc(-c3ccc(F)nc3)nc2)CCn2cc([N+](=O)[O-])nc2O1 (stereo not shown) [compound 113],43 µM,–,–,–,–,–,90 nM,2.7 µM
"C[C@]1(COCc2ccc(-c3ccc(OC(F)(F)F)cc3)cc2)CCn2cc([N+](=O)[O-])nc2O1 [compound 34, (7R)-7-Methyl-2-nitro-7-({[4′-(trifluoromethoxy)[1,1′-biphenyl]-4-yl]methoxy}methyl)-6,7-dihydro-5H-imidazo[2,1-b][1,3]oxazine]",1.1 µM,–,–,–,–,–,240 nM,0.063 µM
CC1(COc2ccc(-c3ccc(F)cc3F)cn2)CCn2cc([N+](=O)[O-])nc2O1 (stereo not shown) [compound 63],2.5 µM,> 64000 nM,110 nM,210 nM,0.089 µM,–,–,–
O=C(c1ccc(F)cc1)N1CCN(CC2CCn3cc([N+](=O)[O-])nc3O2)CC1 (stereo not shown) [compound 157],> 128 µM,> 64000 nM,45000 nM,11000 nM,46 µM,–,4800 nM,–
O=[N+]([O-])c1cn2c(n1)OC(COc1ccc(OC(F)(F)F)cc1)CC2 (stereo not shown) [compound 39],4.7 µM,–,–,–,–,–,40 nM,5.2 µM
O=[N+]([O-])c1cn2c(n1)OC(COc1ccc(OCc3ccccc3)cc1)CC2 (stereo not shown) [compound 45],> 128 µM,–,–,–,–,–,20 nM,> 128 µM
"O=[N+]([O-])c1cn2c(n1)OC(CN1CCN(c3ccc(F)cc3)CC1)CC2 (stereo not shown) [compound 142, 7-{[4-(4-Fluorophenyl)piperazin-1-yl]methyl}-2-nitro-6,7-dihydro-5H-imidazo[2,1-b][1,3]oxazine]",9.9 µM,–,–,–,–,–,190 nM,1.8 µM
O=[N+]([O-])c1cn2c(n1)OC(COc1ccc(-c3ccc(F)nc3)nc1)CC2 (stereo not shown) [compound 112],21 µM,–,–,–,–,–,90 nM,2.3 µM
O=[N+]([O-])c1cn2c(n1)OC(COc1ccc(-c3ccc(OC(F)(F)F)cc3)nc1)CC2 (stereo not shown) [compound 93],0.86 µM,–,–,–,–,0.032 µM,50 nM,0.02 to 0.04 µM
CC1(COc2cccc(-c3ccc(F)cc3F)n2)CCn2cc([N+](=O)[O-])nc2O1 (stereo not shown) [compound 103],4.8 µM,> 64000 nM,240 nM,220 nM,0.69 µM,–,–,–
CC1(COc2cccc(-c3ccc(F)nc3F)n2)CCn2cc([N+](=O)[O-])nc2O1 (stereo not shown) [compound 120],7.9 µM,> 64000 nM,590 nM,490 nM,9.3 µM,–,–,–
CC1(COc2ccc(-c3ccc(F)cc3)nc2)CCn2cc([N+](=O)[O-])nc2O1 (stereo not shown) [compound 90],3.9 µM,–,–,–,–,–,650 nM,0.35 µM
O=[N+]([O-])c1cn2c(n1)O[C@H](COc1ccc(-c3ccc(OC(F)(F)F)cc3)nc1)CC2 [compound 95],1.6 µM,–,–,–,–,–,–,0.34 µM
O=[N+]([O-])c1cn2c(n1)OC(COc1ccc(-c3ccc(F)nc3)cn1)CC2 (stereo not shown) [compound 107],15 µM,–,–,–,–,–,270 nM,0.074 µM
CC1(COc2ccc(-c3ccc(F)nc3F)cn2)CCn2cc([N+](=O)[O-])nc2O1 (stereo not shown) [compound 110],6.6 µM,> 64000 nM,200 nM,430 nM,1 µM,–,–,–
CC1(COc2ccc(OCc3ccccc3)cc2)CCn2cc([N+](=O)[O-])nc2O1 (stereo not shown) [compound 47],> 128 µM,–,–,–,0.44 µM,–,120 nM,–
O=[N+]([O-])c1cn2c(n1)OC(COc1ccc(-c3ccc(OC(F)(F)F)cc3)cc1)CC2 (stereo not shown) [compound 53],0.73 µM,–,–,–,–,–,60 nM,0.08 µM
CC1(COc2ccc(-c3ccc(F)nc3)cn2)CCn2cc([N+](=O)[O-])nc2O1 (stereo not shown) [compound 108],6.2 µM,–,–,–,–,–,220 nM,1.9 µM
